Assay results: US20200377561A1, “ANTIMICROBIAL PEPTIDES AND METHODS OF TREATING GRAM-NEGATIVE PATHOGEN INFECTIONS: POLAR AND NON-POLAR FACE ANALOGS” (THE REGENTS OF THE UNIVERSITY OF COLORADO, a body corporate, priority 2017, published 2020)
Peptide text beside a SMILES is read from it.

Key:
[1] = system: Pseudomonas aeruginosa ATCC 27853; format: cell-based; conditions: ATCC 27853
Description: (§1) Bacterial strains were acquired from the American Type Culture Collection (ATCC, Virginia, USA) and the National Collection of Type Cultures (NCTC, Public Health England, Salisbury, UK). Minimum Inhibitory Concentration (MIC) of peptides versus gram-negative strains-Acinetobacter baumannii NCTC 13420, and Pseudomonas aeruginosa ATCC 27853 and gram-positive strain Staphylococcus aureus ATCC 29213, were determined by broth microdilution as per the guidelines of the Clinical and Laboratory Standards Institute (“Methods for Dilution Antimicrobial Susceptibility Tests for Bacteria That Grow Aerobically”; Approved Standard-Ninth Edition. CLSI document M07-A9, 2012). Peptides were dissolved in sterile distilled water, which was also used as the drug-free vehicle control when determining peptide MICs. Prior to use in the MIC protocol, bacterial strains were grown on Mueller Hinton agar at 37° C. in an ambient atmosphere. […] A fixed inoculum of the test microorganism (5×10^5 cells/mL) is also added to the plate. The MIC is determined as the lowest concentration of compound that inhibits visible bacterial growth following incubation at 37° C. for 16-20 hours. A difference in MIC of two-fold between experimental replicates is considered to be within the normal variability of this protocol.

[2] = system: Acinetobacter baumannii NCTC 13420; format: cell-based; conditions: NCTC 13420
Description: as §1

[3] = system: Human erythrocytes; experiment: Haemolysis assay using human blood; format: cell-based; conditions: red cells of human, 1 h
Description: To determine the extent of haemolytic activity (the ability to lyse red blood cells) in test peptides, a haemolysis assay was conducted using human blood (BioIVT, West Sussex, UK). Human erythrocytes were exposed to a single fixed concentration or a range of concentrations as to determine the % haemolysis (fixed concentration) or the concentration at which 50% haemolysis occurred (HC50), respectively. Prior to the assay, whole human blood was repeatedly washed in phosphate buffered saline (PBS) under cooled conditions to remove the buffy coat, plasma and cell debris. Washed erythrocytes were diluted as to achieve 1×10^8 cells/mL in PBS. Prepared human erythrocyte samples were combined with peptide at a single fixed concentration of 128 μg/mL, or a range of concentrations (two-fold dilution series) from 1000-31.25 μg/mL. Positive and negative controls containing 2% (v/v) Triton X-100 and PBS alone, respectively, were also prepared. Samples were incubated at 37° C. for 1 hour and then centrifuged to collect intact erythrocytes. Haemoglobin release was determined by recording the optical density of the supernatant at 540 nm. Optical density values were transformed to a percentage of the positive control. Results were recorded as a percentage haemolysis at 128 μg/mL, or by plotting the percentage haemolysis versus concentration and extrapolating the HC50 using linear regression analysis (Table 2 above)
The therapeutic index is a widely-accepted parameter to represent the specificity of antimicrobial peptides for prokaryotic versus eukaryotic cells. It is calculated by the ratio of hemolytic activity and antimicrobial activity (MIC) (Table 2 above); thus, larger values of therapeutic index indicate greater specificity for prokaryotic cells. With the peptides used in this study the inventors used the HC50/MIC ratio value to calculate the therapeutic index.

[4] = Peptide hydrophobicity by RP-HPLC retention; format: physicochemical; conditions: for tR (relative hydrophobicity by RP-HPLC): Zorbax SB-300 C8, 0.25% B/min from 10% B, 0.3 ml/min, 30° C.
Source text: Retention behavior in RP-HPLC is an excellent method to represent overall peptide hydrophobicity. Retention times of peptides are highly sensitive to the conformational status of the peptides upon interaction with the hydrophobic environment of the column matrix^17,26. The non-polar faces of amphipathic alpha-helical and amphipathic cyclic beta-sheet peptides represent a preferred binding domain for interaction with the hydrophobic matrix of the reversed-phase column^27. In this study, the observed peptide hydrophobicity was determined by RP-HPLC retention time as described below and are relative hydrophobicities because they are dependent on the TFA concentration and organic solvent in the mobile phase, gradient rate, temperature, flow rate and the column used. Analytical Purification by Reversed-phase Chromatography: Analytical RP-HPLC: Column: Zorbax SB-300 C8 (150×2.1 mm ID; 5-μm particle size; 300 Å pore size). Conditions: linear AB gradient (0.25% B/min from 10% B) at a flow-rate of 0.3 ml/min, where Eluent A is 0.2% aq. TFA and Eluent B is 0.18% TFA in acetonitrile; 30° C.

CC(=O)N[C@H](CCCCN)C(=O)N[C@H](CC(C)C)C(=O)N[C@H](CO)C(=O)N[C@H](CO)C(=O)N[C@H](CC(C)C)C(=O)N[C@H](CC(C)C)C(=O)N[C@H](CO)C(=O)N[C@H](CCCCN)C(=O)N[C@H](CC(C)C)C(=O)N[C@H](CCCCN)C(=O)N[C@H](CCCCN)C(=O)N[C@H](C)C(=O)N[C@H](CCCCN)C(=O)N[C@H](CCCCN)C(=O)N[C@H](CCCCN)C(=O)N[C@H](CCCCN)C(=O)N[C@H](CC(C)C)C(=O)N[C@H](CCCCN)C(=O)N[C@H](CCCCN)C(=O)N[C@H](CC(C)C)C(=O)N[C@H](CC(C)C)C(=O)N[C@H](CCCCN)C(=O)N[C@H](C)C(=O)N[C@H](CC(C)C)C(=O)N[C@H](CO)C(=O)N[C@H](CO)C(N)=O [compound 5] (HELM PEPTIDE1{[ac].[dK].[dL].[dS].[dS].[dL].[dL].[dS].[dK].[dL].[dK].[dK].[dA].[dK].[dK].[dK].[dK].[dL].[dK].[dK].[dL].[dL].[dK].[dA].[dL].[dS].[dS].[am]}$$$$V2.0)
P. aeruginosa ATCC27853 MIC [1]: 2 µg/mL | Antimicrobial Activity MIC A. baumannii NCTC13420 [2]: 1 µg/mL | Haemolysis HC50 [3]: 669 µg/mL

CC(=O)N[C@H](C)C(=O)N[C@H](CC(C)C)C(=O)N[C@H](CCCCN)C(=O)N[C@H](CCCCN)C(=O)N[C@H](CC(C)C)C(=O)N[C@H](CC(C)C)C(=O)N[C@H](CCCCN)C(=O)N[C@H](CCCCN)C(=O)N[C@H](CC(C)C)C(=O)N[C@H](CO)C(=O)N[C@H](CO)C(=O)N[C@H](C)C(=O)N[C@H](CCCCN)C(=O)N[C@H](CO)C(=O)N[C@H](CO)C(=O)N[C@H](CCCCN)C(=O)N[C@H](CC(C)C)C(=O)N[C@H](CO)C(=O)N[C@@H](C(=O)N[C@H](CC(C)C)C(=O)N[C@H](CC(C)C)C(=O)N[C@H](CCCCN)C(=O)N[C@H](CCCCN)C(=O)N[C@H](CC(C)C)C(=O)N[C@H](CCCCN)C(=O)N[C@H](CCCCN)C(N)=O)[C@H](C)O [compound 8] (HELM PEPTIDE1{[ac].[dA].[dL].[dK].[dK].[dL].[dL].[dK].[dK].[dL].[dS].[dS].[dA].[dK].[dS].[dS].[dK].[dL].[dS].[dT].[dL].[dL].[dK].[dK].[dL].[dK].[dK].[am]}$$$$V2.0)
tR (relative hydrophobicity by RP-HPLC) [4]: 94.51 min | P. aeruginosa ATCC27853 MIC [1]: 4 µg/mL | Antimicrobial Activity MIC A. baumannii NCTC13420 [2]: 2 µg/mL | Haemolysis HC50 [3]: >1000 µg/mL

CC(=O)N[C@H](C)C(=O)N[C@H](CC(C)C)C(=O)N[C@H](CO)C(=O)N[C@H](CO)C(=O)N[C@H](CC(C)C)C(=O)N[C@H](CC(C)C)C(=O)N[C@H](CO)C(=O)N[C@H](CCCCN)C(=O)N[C@H](CC(C)C)C(=O)N[C@H](CCCCN)C(=O)N[C@H](CCCCN)C(=O)N[C@H](C)C(=O)N[C@H](CCCCN)C(=O)N[C@H](CCCCN)C(=O)N[C@H](CCCCN)C(=O)N[C@H](CCCCN)C(=O)N[C@H](CC(C)C)C(=O)N[C@H](CCCCN)C(=O)N[C@H](CCCCN)C(=O)N[C@H](CC(C)C)C(=O)N[C@H](CC(C)C)C(=O)N[C@H](CCCCN)C(=O)N[C@H](C)C(=O)N[C@H](CC(C)C)C(=O)N[C@H](CO)C(=O)N[C@H](CO)C(N)=O [compound 10] (HELM PEPTIDE1{[ac].[dA].[dL].[dS].[dS].[dL].[dL].[dS].[dK].[dL].[dK].[dK].[dA].[dK].[dK].[dK].[dK].[dL].[dK].[dK].[dL].[dL].[dK].[dA].[dL].[dS].[dS].[am]}$$$$V2.0)
P. aeruginosa ATCC27853 MIC [1]: 2 µg/mL | Antimicrobial Activity MIC A. baumannii NCTC13420 [2]: 2 µg/mL | Haemolysis HC50 [3]: >1000 µg/mL

CC(=O)N[C@H](CCCCN)C(=O)N[C@H](CC(C)C)C(=O)N[C@H](CCCCN)C(=O)N[C@H](CCCCN)C(=O)N[C@H](CC(C)C)C(=O)N[C@H](CC(C)C)C(=O)N[C@H](CCCCN)C(=O)N[C@H](CCCCN)C(=O)N[C@H](CC(C)C)C(=O)N[C@H](CO)C(=O)N[C@H](CO)C(=O)N[C@H](C)C(=O)N[C@H](CCCN)C(=O)N[C@H](CO)C(=O)N[C@H](CO)C(=O)N[C@H](CCCN)C(=O)N[C@H](CC(C)C)C(=O)N[C@H](CO)C(=O)N[C@@H](C(=O)N[C@H](CC(C)C)C(=O)N[C@H](CC(C)C)C(=O)N[C@H](CCCCN)C(=O)N[C@H](CCCCN)C(=O)N[C@H](CC(C)C)C(=O)N[C@H](CCCCN)C(=O)N[C@H](CCCCN)C(N)=O)[C@H](C)O [compound 14] (HELM PEPTIDE1{[ac].[dK].[dL].[dK].[dK].[dL].[dL].[dK].[dK].[dL].[dS].[dS].[dA].[NCCC[C@@H](N[*:1])C(=O)[*:2]].[dS].[dS].[NCCC[C@@H](N[*:1])C(=O)[*:2]].[dL].[dS].[dT].[dL].[dL].[dK].[dK].[dL].[dK].[dK].[am]}$$$$V2.0)
tR (relative hydrophobicity by RP-HPLC) [4]: 83.40 min | ΔtR (Lys) ([4]; retention time difference to the Lys13/Lys16 parent peptide): 3.97 min | P. aeruginosa ATCC27853 MIC [1]: 4 µg/mL | Antimicrobial Activity MIC A. baumannii NCTC13420 [2]: 2 µg/mL | Haemolysis HC50 [3]: >1000 µg/mL

CC(=O)N[C@H](C)C(=O)N[C@H](CC(C)C)C(=O)N[C@H](CCCCN)C(=O)N[C@H](CO)C(=O)N[C@H](CC(C)C)C(=O)N[C@H](CC(C)C)C(=O)N[C@H](CCCCN)C(=O)N[C@H](CCCCN)C(=O)N[C@H](CC(C)C)C(=O)N[C@H](CO)C(=O)N[C@H](CCCCN)C(=O)N[C@H](C)C(=O)N[C@H](CCCCN)C(=O)N[C@H](CCCCN)C(=O)N[C@H](CCCCN)C(=O)N[C@H](CCCCN)C(=O)N[C@H](CC(C)C)C(=O)N[C@H](CCCCN)C(=O)N[C@H](CCCCN)C(=O)N[C@H](CC(C)C)C(=O)N[C@H](CC(C)C)C(=O)N[C@H](CCCCN)C(=O)N[C@H](C)C(=O)N[C@H](CC(C)C)C(=O)N[C@H](CO)C(=O)N[C@H](CO)C(N)=O [compound 23] (HELM PEPTIDE1{[ac].[dA].[dL].[dK].[dS].[dL].[dL].[dK].[dK].[dL].[dS].[dK].[dA].[dK].[dK].[dK].[dK].[dL].[dK].[dK].[dL].[dL].[dK].[dA].[dL].[dS].[dS].[am]}$$$$V2.0)
P. aeruginosa ATCC27853 MIC [1]: 2 µg/mL | Antimicrobial Activity MIC A. baumannii NCTC13420 [2]: 2 µg/mL | Haemolysis HC50 [3]: 175 µg/mL

CC(=O)N[C@H](CCCCN)C(=O)N[C@H](CC(C)C)C(=O)N[C@H](CCCCN)C(=O)N[C@H](CO)C(=O)N[C@H](CC(C)C)C(=O)N[C@H](CC(C)C)C(=O)N[C@H](CCCCN)C(=O)N[C@H](CO)C(=O)N[C@H](CC(C)C)C(=O)N[C@H](CO)C(=O)N[C@H](CCCCN)C(=O)N[C@H](C)C(=O)N[C@H](CCCCN)C(=O)N[C@H](CCCCN)C(=O)N[C@H](CCCCN)C(=O)N[C@H](CCCCN)C(=O)N[C@H](CC(C)C)C(=O)N[C@H](CCCCN)C(=O)N[C@H](CO)C(=O)N[C@H](CC(C)C)C(=O)N[C@H](CC(C)C)C(=O)N[C@H](CCCCN)C(=O)N[C@H](C)C(=O)N[C@H](CC(C)C)C(=O)N[C@H](CO)C(=O)N[C@H](CCCCN)C(N)=O [compound 26] (HELM PEPTIDE1{[ac].[dK].[dL].[dK].[dS].[dL].[dL].[dK].[dS].[dL].[dS].[dK].[dA].[dK].[dK].[dK].[dK].[dL].[dK].[dS].[dL].[dL].[dK].[dA].[dL].[dS].[dK].[am]}$$$$V2.0)
P. aeruginosa ATCC27853 MIC [1]: 2 µg/mL | Antimicrobial Activity MIC A. baumannii NCTC13420 [2]: 1 µg/mL | Haemolysis HC50 [3]: >1000 µg/mL
